# Test results published in patent US8541645B2, “Animal model for cigarette-smoke-induced atherosclerosis and related methods” (University of Calcutta, priority 2009, dated 2013).
# Assays:
# scurvy = settings: dietary; cited from earlier work
# [1] = system: CS-induced atherosclerosis in guinea pig aorta; assay: Cigarette-smoke-induced atherosclerosis in guinea pig aorta (H&E and Oil red O staining of aortic sections); assay type: in vivo; settings: dietary supplementation of vitamin C 5 mg/day in addition to CS exposure; aortic sections stained with H&E or Oil red O (FIG. 3)
# Protocol: Two to six, preferably three to four, month old male guinea pigs weighing between about 350 to about 450 grams (g) are used. All animals are maintained on a vitamin C-free diet for 7 days in order to minimize the in vivo levels of vitamin C in plasma and tissues. After 7 days of vitamin C deprivation, the guinea pigs are given a dietary supplementation of about 1 milligram (mg) of vitamin C per day (1 mg vitamin C/day) to prevent the onset of scurvy. (It is known that a dose of 0.8 mg vitamin C/day is sufficient to maintain guinea pigs without the development of scurvy.) Thereafter, the guinea pigs are subjected to cigarette smoke exposure (3 cigarettes per animal per day (3 cigarettes/animal/day) with 2 puffs per cigarette (2 puffs/cigarette)). Two puffs per cigarette indicate that the burning of a cigarette is divided into two halves. In each half, animals are exposed to cigarette smoke for a period of 1 minute (min.). There is an interval of 1 min. between these two halves. During this interval, animals are exposed to normal atmospheric air. Likewise, 3 puffs/cigarette would indicate that the burning of a cigarette is divided into three approximately equal parts with two intervals in between. […]
compound,measurement,setting,value
"O=C1O[C@H]([C@@H](O)CO)C(O)=C1O [vitamin C, L-ascorbic acid]",dose sufficient to maintain guinea pigs without the development of scurvy,scurvy,0.8 mg vitamin C/day
same,effect on CS-induced atherogenic changes in guinea pig aorta,[1],prevents CS-induced atherogenic changes
